Laboratory results published in ChEMBL document CHEMBL4732045, “Amide Bond Bioisosteres: Strategies, Synthesis, and Successes” (J Med Chem, 2020).
Values belong to the compound of their own block, whether it stands above or below them. Square brackets hold non-standard residues; d marks the D form. Peptide text beside a SMILES is read from it. PhLac = O=C(O)[C@@H](O)Cc1ccccc1

Experiments:
[1] = Half life in monkey at 10 mg/kg, po; assay type: ADME, organism-based, Macaca mulatta; conditions: rhesus monkey, in vivo
[2] = Oral bioavailability in monkey at 10 mg/kg; assay type: ADME, organism-based, Macaca mulatta; conditions: rhesus monkey, in vivo
[3] = target: Integrin alpha-4/beta-1 (Homo sapiens, UniProt P05556+P13612); experiment: Displacement of 125I-VCAM-Ig from VLA4 in human Jurkat cells incubated for 30 mins by scintillation counting method; assay type: cell-based
[4] = Inhibition of ACAT in cholesterol-fed New Zealand rabbit intestional microsomes using [1-14C]oleoyl-CoA as substrate preincubated for 5 mins followed by substrate addition and measured after 5 mins by liquid scintillation counting method; set-up: species or system Oryctolagus cuniculus, Intestine, Microsome
[5] = test system: Poly(dA-dT)oligonucleotide; experiment: Binding affinity to poly (dA-dT) (unknown origin) by ethidium displacement assay; assay type: nucleic-acid assay
[6] = test system: Poly(dG-dC)oligonucleotide; experiment: Binding affinity to poly (dG-dC) (unknown origin) by ethidium displacement assay; assay type: nucleic-acid assay
[7] = target: Delta-type opioid receptor (Mus musculus, UniProt P32300); experiment: Inhibition of [3H]-Deltorphin 2 binding to mouse delta opioid receptor expressed in rat GH3 cell membranes by Cheng-Prusoff analysis; set-up: species or system Cell membrane
Chain of Delta-type opioid receptor (P32300 whole entry): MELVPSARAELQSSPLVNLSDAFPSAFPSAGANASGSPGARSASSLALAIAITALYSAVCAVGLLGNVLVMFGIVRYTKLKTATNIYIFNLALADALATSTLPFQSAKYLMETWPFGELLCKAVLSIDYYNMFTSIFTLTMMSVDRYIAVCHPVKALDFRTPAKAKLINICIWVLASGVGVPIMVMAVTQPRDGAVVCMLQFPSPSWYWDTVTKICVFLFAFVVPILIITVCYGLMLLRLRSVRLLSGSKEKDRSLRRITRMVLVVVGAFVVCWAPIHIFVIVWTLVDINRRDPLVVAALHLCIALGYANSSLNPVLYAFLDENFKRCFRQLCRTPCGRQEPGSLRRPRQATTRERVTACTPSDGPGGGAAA

[8] = test system: MDA-MB-231; experiment: Antiproliferative activity against human MDA-MB-231 cells; assay type: functional, cell-based
[9] = test system: HMEC-1; experiment: Growth inhibition of HMEC-1 incubated for 4 days by Coulter counter method; assay type: cell-based; conditions: Homo sapiens, HMEC-1, 96 h
[10] = Growth inhibition of BAEC incubated for 3 days by Coulter counter method; conditions: Bos taurus, 72 h
[11] = test system: HeLa; experiment: Antiproliferative activity against human HeLa cells incubated for 4 days by Coulter counter method; assay type: functional, cell-based; conditions: 96 h
[12] = test system: CCRF-CEM; experiment: Antiproliferative activity against human CEM cells incubated for 96 hrs by Coulter counter method; assay type: functional, cell-based
[13] = test system: L1210; experiment: Antiproliferative activity against mouse L1210 cells incubated for 48 hrs by Coulter counter method; assay type: functional, cell-based; conditions: L1210, 48 h
[14] = test system: CAKI-2; experiment: Cytotoxicity against human Caki-2 cells incubated for 96 hrs by MTT assay; assay type: functional, cell-based; conditions: CAKI-2, 96 h
[15] = test system: A549; experiment: Cytotoxicity against human A549 cells incubated for 96 hrs by MTT assay; assay type: functional, cell-based; conditions: A549, 96 h
[16] = test system: HeLa; experiment: Cytotoxicity against human HeLa cells incubated for 96 hrs by MTT assay; assay type: functional, cell-based
[17] = test system: PC-3; experiment: Cytotoxicity activity against human PC-3 cells incubated for 96 hrs by MTT method; assay type: functional, cell-based; conditions: PC-3, 96 h
[18] = test system: HL-60; experiment: Cytotoxicity activity against human HL-60 cells incubated for 96 hrs by MTT assay; assay type: functional, cell-based; conditions: HL-60, 96 h
[19] = test system: Mus musculus; experiment: Immunosuppressive activity in B6D2F1 mouse model of graft-versus-host disease assessed as mean survival days at 3 mg/kg, ip administered for day 1 to day 10 (day 6 omitted) and measured at day 60; assay type: functional; conditions: time 60 day
[20] = test system: Mus musculus; experiment: Immunosuppressive activity in B6D2F1 mouse model of graft-versus-host disease assessed as mean survival days at 1 mg/kg, ip administered for day 1 to day 10 (day 6 omitted) and measured at day 60; assay type: functional; conditions: time 60 day
[21] = test system: Rattus norvegicus; experiment: Immunosuppressive activity in Lewis rat model of Heart Allotransplantation assessed as mean survival days at 6 mg/kg, ip administered for 10 days by Manntel-Haenszel test; assay type: functional; conditions: time 10 day
[22] = target: Interstitial collagenase (Homo sapiens, UniProt P03956); experiment: Inhibition of PMA-induced human skin fibroblast derived MMP1 by fluorometric assay; assay type: tissue-based
Chain of Interstitial collagenase (P03956 whole entry): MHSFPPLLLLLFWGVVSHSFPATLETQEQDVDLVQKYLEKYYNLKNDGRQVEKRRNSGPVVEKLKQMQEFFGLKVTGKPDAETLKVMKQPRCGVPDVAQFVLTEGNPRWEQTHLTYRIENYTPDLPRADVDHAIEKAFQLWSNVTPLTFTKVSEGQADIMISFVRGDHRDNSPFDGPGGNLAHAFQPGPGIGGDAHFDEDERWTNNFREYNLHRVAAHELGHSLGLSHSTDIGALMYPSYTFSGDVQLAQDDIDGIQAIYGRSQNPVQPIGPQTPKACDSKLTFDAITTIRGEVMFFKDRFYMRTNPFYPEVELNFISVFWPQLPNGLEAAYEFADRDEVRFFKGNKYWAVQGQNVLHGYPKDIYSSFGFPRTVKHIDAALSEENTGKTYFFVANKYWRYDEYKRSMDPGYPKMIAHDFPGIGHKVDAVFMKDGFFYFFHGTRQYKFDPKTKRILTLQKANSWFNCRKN

[23] = target: 72 kDa type IV collagenase (Homo sapiens, UniProt P08253); experiment: Inhibition of TNF-induced MMP2 isolated from human HT-1080 cell medium by fluorometric assay; assay type: tissue-based
Chain of 72 kDa type IV collagenase (P08253 whole entry): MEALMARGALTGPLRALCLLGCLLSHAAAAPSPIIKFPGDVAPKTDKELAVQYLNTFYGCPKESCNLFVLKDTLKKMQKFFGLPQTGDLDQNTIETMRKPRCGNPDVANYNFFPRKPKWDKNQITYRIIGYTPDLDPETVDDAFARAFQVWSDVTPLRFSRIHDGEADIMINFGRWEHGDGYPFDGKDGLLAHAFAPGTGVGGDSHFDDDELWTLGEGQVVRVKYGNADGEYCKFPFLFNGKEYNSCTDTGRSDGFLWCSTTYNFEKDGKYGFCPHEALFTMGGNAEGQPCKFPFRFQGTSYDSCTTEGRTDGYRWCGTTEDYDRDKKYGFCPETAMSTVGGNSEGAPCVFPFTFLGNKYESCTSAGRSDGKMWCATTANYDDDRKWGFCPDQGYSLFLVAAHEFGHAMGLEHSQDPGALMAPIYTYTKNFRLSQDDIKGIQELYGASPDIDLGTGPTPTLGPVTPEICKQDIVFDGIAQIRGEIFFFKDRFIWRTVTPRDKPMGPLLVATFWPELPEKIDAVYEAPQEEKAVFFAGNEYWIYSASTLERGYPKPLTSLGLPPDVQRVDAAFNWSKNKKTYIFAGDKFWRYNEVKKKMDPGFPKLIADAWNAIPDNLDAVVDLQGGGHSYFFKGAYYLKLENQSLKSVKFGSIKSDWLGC

[24] = target: Stromelysin-1 (Homo sapiens, UniProt P08254); experiment: Inhibition of human MMP3 by fluorometric assay
Chain of Stromelysin-1 (P08254 whole entry): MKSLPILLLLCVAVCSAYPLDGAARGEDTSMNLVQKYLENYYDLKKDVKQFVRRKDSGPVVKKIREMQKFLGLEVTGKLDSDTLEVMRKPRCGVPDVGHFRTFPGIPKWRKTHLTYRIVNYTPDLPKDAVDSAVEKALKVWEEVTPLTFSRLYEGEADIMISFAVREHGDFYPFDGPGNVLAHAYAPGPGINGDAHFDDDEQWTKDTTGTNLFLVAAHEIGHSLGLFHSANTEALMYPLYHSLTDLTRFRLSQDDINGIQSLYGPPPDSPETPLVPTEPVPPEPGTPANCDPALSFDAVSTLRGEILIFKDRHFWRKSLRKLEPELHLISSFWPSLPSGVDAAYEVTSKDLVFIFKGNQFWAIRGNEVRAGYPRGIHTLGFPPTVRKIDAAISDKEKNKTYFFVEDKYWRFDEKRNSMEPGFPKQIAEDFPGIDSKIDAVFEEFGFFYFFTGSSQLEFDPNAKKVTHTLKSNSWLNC

[25] = target: Matrilysin (Homo sapiens, UniProt P09237); experiment: Inhibition of human MMP7 by fluorometric assay
Chain of Matrilysin (P09237 whole entry): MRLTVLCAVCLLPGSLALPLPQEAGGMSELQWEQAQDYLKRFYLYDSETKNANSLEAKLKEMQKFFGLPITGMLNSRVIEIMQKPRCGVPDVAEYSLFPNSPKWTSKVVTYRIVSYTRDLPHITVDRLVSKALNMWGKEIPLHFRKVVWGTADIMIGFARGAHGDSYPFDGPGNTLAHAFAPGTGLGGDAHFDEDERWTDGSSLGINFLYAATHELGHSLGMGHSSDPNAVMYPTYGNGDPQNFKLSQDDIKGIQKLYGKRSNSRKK

[26] = target: Neprilysin (Homo sapiens, UniProt P08473); experiment: Inhibition of NEP 24.11 (unknown origin) by fluorometric assay
Chain of Neprilysin (P08473 whole entry): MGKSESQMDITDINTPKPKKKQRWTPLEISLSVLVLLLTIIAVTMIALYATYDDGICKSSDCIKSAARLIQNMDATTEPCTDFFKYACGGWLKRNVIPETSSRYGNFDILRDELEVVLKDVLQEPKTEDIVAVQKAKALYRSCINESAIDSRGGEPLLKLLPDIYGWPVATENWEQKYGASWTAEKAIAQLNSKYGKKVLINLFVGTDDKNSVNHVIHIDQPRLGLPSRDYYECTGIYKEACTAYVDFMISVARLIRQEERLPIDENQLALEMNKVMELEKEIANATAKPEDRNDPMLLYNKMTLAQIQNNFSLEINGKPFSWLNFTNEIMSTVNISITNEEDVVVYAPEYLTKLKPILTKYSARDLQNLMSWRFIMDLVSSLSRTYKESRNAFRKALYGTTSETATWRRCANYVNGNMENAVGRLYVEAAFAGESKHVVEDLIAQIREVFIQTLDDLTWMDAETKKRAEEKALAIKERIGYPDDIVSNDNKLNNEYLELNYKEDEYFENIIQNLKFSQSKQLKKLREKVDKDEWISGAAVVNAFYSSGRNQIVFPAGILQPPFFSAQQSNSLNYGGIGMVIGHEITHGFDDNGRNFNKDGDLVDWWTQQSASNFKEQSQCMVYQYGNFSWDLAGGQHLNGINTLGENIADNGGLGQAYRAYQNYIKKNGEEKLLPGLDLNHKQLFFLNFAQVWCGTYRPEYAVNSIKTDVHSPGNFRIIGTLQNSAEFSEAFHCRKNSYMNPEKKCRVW

[27] = Selectivity index, ratio of Ki for human CB1 receptor expressed in HEK cells to Ki for human CB2 receptor expressed in HEK cells
[28] = target: Cannabinoid receptor 1 (Homo sapiens, UniProt P21554); experiment: Displacement of [3H]CP-55940 from human CB1 receptor expressed in HEK cells by competitive binding assay; assay type: cell-based
Chain of Cannabinoid receptor 1 (P21554 whole entry): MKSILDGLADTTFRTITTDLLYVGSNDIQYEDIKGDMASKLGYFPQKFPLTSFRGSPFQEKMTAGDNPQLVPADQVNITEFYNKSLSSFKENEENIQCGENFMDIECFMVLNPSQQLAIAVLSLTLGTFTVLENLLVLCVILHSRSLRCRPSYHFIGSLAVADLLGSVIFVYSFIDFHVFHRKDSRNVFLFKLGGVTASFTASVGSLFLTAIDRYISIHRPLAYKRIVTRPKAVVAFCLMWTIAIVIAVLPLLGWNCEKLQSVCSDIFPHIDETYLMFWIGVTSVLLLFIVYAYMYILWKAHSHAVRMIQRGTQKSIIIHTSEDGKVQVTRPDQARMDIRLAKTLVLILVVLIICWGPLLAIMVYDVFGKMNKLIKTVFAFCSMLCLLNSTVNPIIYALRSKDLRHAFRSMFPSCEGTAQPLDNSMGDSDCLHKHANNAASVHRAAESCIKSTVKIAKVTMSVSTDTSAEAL

[29] = target: Cannabinoid receptor 2 (Homo sapiens, UniProt P34972); experiment: Displacement of [3H]CP-55940 from human CB2 receptor expressed in HEK cells by competitive binding assay; assay type: cell-based
Chain of Cannabinoid receptor 2 (P34972 whole entry): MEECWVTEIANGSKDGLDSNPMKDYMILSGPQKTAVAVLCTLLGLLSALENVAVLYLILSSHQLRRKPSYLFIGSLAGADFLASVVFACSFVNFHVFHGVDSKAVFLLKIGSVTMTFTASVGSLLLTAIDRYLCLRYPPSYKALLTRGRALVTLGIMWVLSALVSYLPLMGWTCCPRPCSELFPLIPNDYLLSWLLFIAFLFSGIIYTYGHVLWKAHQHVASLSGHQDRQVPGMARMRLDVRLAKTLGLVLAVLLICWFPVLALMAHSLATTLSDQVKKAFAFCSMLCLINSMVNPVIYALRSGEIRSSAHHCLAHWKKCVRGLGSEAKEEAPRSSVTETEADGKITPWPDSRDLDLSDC

Structure (SMILES): CC(C)C[C@H](NC(=O)[C@H](Cc1ccccc1)OC(=O)CNC(=O)CNC(=O)[C@@H](N)Cc1ccc(O)cc1)C(=O)O (H-YGG[PhLac]L-OH)
Ki [7]: 0.034 µM

Structure (SMILES): CC(C)C[C@H](NC(=O)[C@H](Cc1ccccc1)N/C=C/NC(=O)CNC(=O)[C@@H](N)Cc1ccc(O)cc1)C(=O)O
Ki [7]: 0.587 µM

Structure (SMILES): COC(=O)c1ccc(-c2cn(-c3cccc(-c4ccccc4)c3)nn2)cc1
IC50 [9]: 0.62 µM
IC50 [10]: 0.42 µM
IC50 [11]: 1.1 µM
IC50 [12]: 0.92 µM
IC50 [13]: 1.1 µM

Structure (SMILES): CCCCCCCCCCCCCCCCCNC(=O)Nc1c(OC)cc(OC)cc1OC
IC50 [4]: 0.32 µM

Structure (SMILES): CCCCCCCCCCCCCCCCS(=O)(=O)N[C@@H](CO)[C@H](O)/C=C/c1ccc(Cl)cc1
IC50 [14]: 103 µM
IC50 [15]: 96 µM
IC50 [16]: 65 µM
IC50 [17]: 123 µM
IC50 [18]: 28 µM

Structure (SMILES): NCCCNCCCCNC(=O)CC(=O)NCCCCCCN=C(N)N
Survival [19]: 52 days
Survival [20]: 53 days
Survival [21]: 9 days

Structure (SMILES): N=C(N)NCCCCCCC(=O)NC(O)C(=O)NCCCCNCCCN (centres undefined)
Survival [19]: 57 days
Survival [20]: 38 days
Survival [21]: 38 days

Structure (SMILES): CN(C)CCCNC(=O)c1cc(NC(=O)c2cc(NC(=O)c3cc([N+](=O)[O-])cn3C)cn2C)cn1C
Kapp [5]: 8.7 10^5/M
Kapp [6]: 3.5 10^5/M

Structure (SMILES): CCCCCn1cc(-c2nnc(C34CC5CC(CC(C5)C3)C4)o2)c(=O)c2cc(-c3ccco3)ccc21
Ratio Ki [27]: >1543
Ki [28]: > 10 µM
Ki [29]: 0.0065 µM

Structure (SMILES): CCCCCn1cc(-c2cn(C34CC5CC(CC(C5)C3)C4)nn2)c(=O)c2cc(-c3ccco3)ccc21
Ki [28]: > 10 µM

Structure (SMILES): NCCCNCCCCNC(=O)NCC(=O)NCCCCCCN=C(N)N
Survival [19]: 48 days
Survival [20]: 42 days
Survival [21]: 12 days

Now from value to compound, other results behind:

half-life [1]: 20 h
bioavailability [2]: 12%
Structure (SMILES): C=CC[C@H](C(=O)NO)[C@@H](CC(C)C)C(=O)N[C@@H](Cc1ccccc1)C(=O)c1c[nH]c2ccccc12

IC50 [3]: 0.00013 µM
Structure (SMILES): COc1cccc(OC)c1-c1ccc(C[C@H](N=C(NCC(F)(F)F)[C@@H]2CCN2S(=O)(=O)c2ccccc2)C(=O)O)cc1

IC50 [4]: 0.017 µM
Structure (SMILES): CC(C)c1cccc(C(C)C)c1NC(=O)NCCCCCc1ccccc1

Kapp [5]: 150 10^5/M
Kapp [6]: 0.9 10^5/M
Structure (SMILES): CN(C)CCCNC(=O)c1cc(NC(=O)c2cc(NC(=O)c3cc(NC=O)cn3C)cn2C)cn1C

IC50 [8]: ≥ 200 µM
Structure (SMILES): COc1ccc(C(=O)NCc2ccc3c(c2)OCO3)cc1

IC50 [22]: 0.0011 µM
IC50 [23]: 0.00085 µM
IC50 [24]: 0.01 µM
IC50 [25]: 0.011 µM
half-life [1]: 27 h
bioavailability [2]: 15%
Structure (SMILES): C=CC[C@H](C(=O)NO)[C@@H](CC(C)C)C(=O)N[C@H](C(=O)NC)C(C)(C)C

Ki [26]: 0.21 µM
Structure (SMILES): O=C(O)CC(=O)N[C@H](CS)Cc1ccccc1

IC50 [4]: 0.063 µM
Structure (SMILES): CC(C)c1cccc(C(C)C)c1NC(=O)NCC1(c2cccc(N(C)C)c2)CCCC1

Ki [26]: 0.0023 µM
Structure (SMILES): O=C(O)CC(=O)N[C@@H](CS)Cc1ccccc1

Ki [28]: 0.033 µM
Ki [29]: 0.0004 µM
Structure (SMILES): CCCCCn1cc(-c2nc(C34CC5CC(CC(C5)C3)C4)no2)c(=O)c2cc(-c3ccco3)ccc21
Ratio Ki [27]: >82

Kapp [5]: 16.9 10^5/M
Kapp [6]: 7.4 10^5/M
Structure (SMILES): CN(C)CCCNC(=O)c1cc(NC(=O)c2cc(/C=C/c3cc([N+](=O)[O-])cn3C)cn2C)cn1C
